This is an account of results in patent US9487462B2, “Inhibitors of matrix metalloproteinases” (PharmaHungary 2000 Kft., priority 2010, dated 2016).

pIC50: −log10 of the molar value.

The target of one data set is MMP1 (Homo sapiens (Human), UniProt P03956). The data set is described as follows: MMP activity assay (fluorogenic substrate), MMP1. It counts as biochemical. The following applies: Table 2; read-out: MM1 IC50.
A further data set addresses MMP2 (Homo sapiens, UniProt P08253). In words: MMP activity assay (fluorogenic substrate), MMP2 catalytic domain. It counts as biochemical. The settings on record: Table 2; read-out: MMP2 IC50. As to the method: (§1) MMP activity assays were conducted as follows: MMP2, MMP9, MMP13 catalytic domain was expressed in E. coli in form of inclusion bodies followed by refolding and purification.
(§2) The Protocol of the Activity Assay:
(§3) Stock solution of substrate (Mca-Lys-Pro-Leu-Gly-Leu-Dpa-Ala-Arg-NH2) was prepared in DMSO at a concentration of 6 mM. Assays were performed in an assay buffer (50 mM Tris pH 7.5, 300 mM NaCl, 10 μM ZnSO4, 5 mM CaCl2, 0.005% Brij-35). The final DMSO concentration in all assays was 1.0%. […] The assays were carried out at 37° C. The fluorescence changes, resulting from the substrate cleavage, were detected using excitation at 340 nm and emission wavelength of 405 nm using a Wallac 1420 Microplate Reader. The reaction mixtures were preincubated with the inhibitors for 30 minutes. The reactions were started by the addition of MMP substrate, and the fluorescence intensity changes were measured after 60 minutes. The obtained fluorescence values were normalized and % inhibition values calculated. Dose response curves were determined from 6 concentration points using three fold dilution steps, each concentration point was determined in duplicate. IC50 values were calculated from the dose response curves.

In a further data set the target is MMP9 (Homo sapiens, UniProt P14780). The data set is described as follows: MMP activity assay (fluorogenic substrate), MMP9 catalytic domain. The class given is biochemical. The following applies: Table 2. How it is done: as §1, §2, §3
A further data set concerns the target MMP13 (Homo sapiens (Human), UniProt P45452). In words: MMP activity assay (fluorogenic substrate), MMP13 catalytic domain. The class given is biochemical. The following applies: Table 2; read-out: MMP13 IC50. As to the method: as §1, §2
as §3, with “The fluorescence changes, resulting from the substrate cleavage, were detected using excitation at 340 nm and emission wavelength of 405 nm using a Wallac 1420 Microplate Reader.” left out

Data set [1] is described as follows: Cytotoxicity, alamarBlue viability, MRC-5. It counts as cell-based. The following applies: human, MRC-5 fibroblast cells, 48 hours incubation, read-out: MRC-5 LC50. As to the method:
(§4) Beside the inhibitory effect on MMPs we tested the cytotoxicity of the selected compounds. These measurements were done in parallel on two cell lines. One of them was the healthy human fibroblast cell line MRC-5 while the other was the human colon tumor cell line HCT116. The viability of the cells was monitored using alamarBlue. This dye is reduced by the cells resulting in an increased fluorescent signal which is proportional to the number of living cells. Cells were incubated with the dilutions of the tested compounds for 48 hours then alamarBlue was added to them for 4 hours. After that the fluorescence changes were detected using excitation at 540 nm and emission wavelength of 590 nm by a Wallac 1420 Microplate Reader. IC50 values were determined for the compounds using six concentrations and duplicate points for each concentration.
In general terms: Resazurin is reduced to fluorescent resorufin, in cell work by metabolically active cells.

A short description of data set [2]: Cytotoxicity, alamarBlue viability, HCT116. It counts as cell-based. The following applies: human, HCT116 colon tumor cells, 48 hours incubation, read-out: HCT116 LC50. As to the method: as §4
The test system of data set [3] is neonatal rat cardiac myocytes. In words: Cytoprotective effect in cardiac myocytes subjected to hypoxia and reoxygenation. The class given is cell-based. How it is done:
Neonatal rat hearts were digested and isolated cardiomyocytes were plated onto 24-well plastic plates at […]. The cells were maintained at 37° C. in a humidified atmosphere of 5% CO2 and 95% air in a CO2 incubator until confluence was reached. Cultures at day 3 were used for treatments. Cells were kept under normoxic or simulated ischemic conditions, i.e. the growth medium was changed to a normoxic or hypoxic solution and the cells were incubated under 95% air and 5% CO2 or 95% N2 and 5% CO2 at 37° C. for 4 h, respectively as described in detail (Gorbe A, Giricz Z, Szunyog A, Csont T, Burley D S, Baxter G F, Ferdinandy P. Role of cGMP-PKG signaling in the protection of neonatal rat cardiac myocytes subjected to simulated ischemia/reoxygenation. Basic Res Cardiol. 105:643-650, 2010). The positive control ilomastate (0.5 microM) and MMP-inhibitors at different effective concentrations (EC 5, EC 10, EC 20, and EC50 as determined in previous test examples) were applied during normoxia or simulated ischemia and also during reoxygenation. The vehicle was DMSO. Cell viability was determined after Calcein A M fluorescent staining as described (Karliner J S, Honbo N, Summers K, Gray M O, Goetzl E J. The lysophospholipids sphingosine-1-phosphate and lysophosphatidic acid enhance survival during hypoxia in neonatal rat cardiac myocytes. J Mol Cell Cardiol, 33:1713-7, 2001). Total cell count was determined after digitonin treatment to permeabilize the cells by using propidium iodine fluorescent staining (Roy S S, Hajnoczky G. Calcium, mitochondria and apoptosis studied by fluorescence measurements. Methods. 46:213-223, 2008).

Sequence of MMP1 (P03956 100-469, species assumed): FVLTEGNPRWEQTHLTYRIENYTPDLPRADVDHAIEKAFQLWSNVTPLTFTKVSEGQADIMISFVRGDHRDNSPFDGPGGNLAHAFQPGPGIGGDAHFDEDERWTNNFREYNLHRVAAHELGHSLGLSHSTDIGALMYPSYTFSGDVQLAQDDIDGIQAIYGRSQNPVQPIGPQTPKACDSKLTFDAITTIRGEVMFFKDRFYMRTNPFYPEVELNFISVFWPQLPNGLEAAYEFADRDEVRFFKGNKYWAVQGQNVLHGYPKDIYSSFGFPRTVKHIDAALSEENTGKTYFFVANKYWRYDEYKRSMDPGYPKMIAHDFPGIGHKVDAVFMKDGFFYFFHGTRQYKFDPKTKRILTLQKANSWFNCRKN

With `O=C(O)c1csc(CN(Cc2ccccc2)Cc2ccccc2)n1` [Compound 7, 2-[(Dibenzylamino)methyl]-1,3-thiazole-4-carboxylic acid], the pIC50 (as a rule, the IC50 on a negative log10 scale, so that one unit is a factor of ten) at MMP1 was 4.96; on MMP2, 5.00; against MMP9, 4.89; on MMP13 it was 5.49. Moreover, the CC50 at 48 h amounted to 117 µM in data set [1] and 73 µM in data set [2].

For the molecule `CCOC(=O)c1csc(CN(Cc2ccc(F)cc2)Cc2ccc(OCc3ccncc3)cc2)n1` [Compound 18, Ethyl 2-({[(4-fluorophenyl)methyl]({[4-(pyridin-4-ylmethoxy)phenyl]methyl})amino}methyl)-1,3-thiazole-4-carboxylate], the pIC50 at MMP1 was under 3.30; at MMP2, under 3.30; against MMP9, 3.64; at MMP13, 4.89. Also, the CC50 at 48 h in data set [1] amounted to 2.9 µM; in data set [2] it was 0.04 µM.

`CCOC(=O)c1csc(CN(Cc2ccc(OCc3cccnc3)cc2)Cc2cccnc2)n1` [Compound 17, Ethyl 2-[({[4-(pyridin-3-ylmethoxy)phenyl]methyl}(pyridin-3-ylmethyl)amino)methyl]-1,3-thiazole-4-carboxylate]: the pIC50 at MMP1 is 3.70; on MMP2, 3.71; against MMP9 it was 3.64; at MMP13 it was 4.72. Besides, the results for the CC50 at 48 h in data set [1] and in data set [2] were 15 µM and 47 µM, respectively.

Turning to `O=C(O)c1csc(CN(Cc2ccncc2)Cc2ccc(OCc3ccccc3)cc2)n1` [Compound 13, 2[({[4-(Benzyloxy)phenyl]methyl}(pyridin-4-ylmethyl)amino)methyl]-1,3-thiazole-4-carboxylic acid], the pIC50 at MMP1 is 3.94; on MMP2, 4.27; against MMP9, under 3.30; on MMP13 it was 5.82. The CC50 at 48 h in data set [1] came to 11 µM; in data set [2], 20 µM.

Consider `CCOC(=O)c1csc(CN(Cc2ccc(OCc3ccccc3)cc2)Cc2cccnc2)n1` [Compound 16, Ethyl 2-[({[4-(benzyloxy)phenyl]methyl}(pyridin-3-ylmethyl)amino)methyl]-1,3-thiazole-4-carboxylate], for which the pIC50 was 3.47 at MMP1, under 3.30 on MMP2, 3.55 against MMP9 and 5.30 at MMP13. Moreover, the CC50 at 48 h was 1.9 µM in data set [1] and 1.8 µM in data set [2]. Besides, the “Cytoprotective effect, % cell survival as compared to vehicle DMSO” value (“Cytoprotective effect, % cell survival” below) in data set [3] (normoxia, EC5 concentration 4.0 microM) is 105 ± 2%; in data set [3] (normoxia, EC10 concentration 8.0 microM), 108 ± 3 %; in data set [3] (normoxia, EC20 concentration 16.0 microM) it was 99 ± 2%; in data set [3] (normoxia, EC50 concentration 32.0 microM), 91 ± 2 %; in data set [3] (simulated ischemia, EC5 concentration 4.0 microM), 119 ± 3 %; in data set [3] (simulated ischemia, EC10 concentration 8.0 microM) it was 119 ± 3 %. Besides, the “Cytoprotective effect, % cell survival” value was 122 ± 4 % in data set [3] (simulated ischemia, EC20 concentration 16.0 microM) and 113 ± 4 % in data set [3] (simulated ischemia, EC50 concentration 32.0 microM).

Take `Cn1cc(C(F)(F)F)nc1CN(Cc1ccc(F)cc1)Cc1ccc(OCc2ccccc2)cc1` [Compound 26, {[4-(Benzyloxy)phenyl]methyl}[(4-fluorophenyl)methyl]{[1-methyl-4-(trifluoromethyl)-1H-imidazol-2-yl]methyl}amine]: the pIC50 was under 3.30 on MMP1, under 3.30 at MMP2, under 3.30 at MMP9 and 4.47 at MMP13. Besides, the CC50 at 48 h in data set [1] turned out to be 40 µM; in data set [2], 25 µM.

For the molecule `O=C(O)c1csc(CN(Cc2ccc(F)cc2)Cc2ccc(-c3ccccc3)cc2)n1` [Compound 15, 2-({[(4-Fluorophenyl)methyl][(4-biphenyl)methyl]amino}methyl)-1,3-thiazole-4-carboxylic acid], the pIC50 on MMP1 was 4.77; at MMP2, 4.52; at MMP9, 4.70; at MMP13 it was 5.52. Moreover, the CC50 at 48 h in data set [1] is 2.9 µM; in data set [2], 1 µM. Besides, the “Cytoprotective effect, % cell survival” value is 95 ± 2% in data set [3] (normoxia, EC5 concentration 3.0 microM); 99 ± 2% in data set [3] (normoxia, EC10 concentration 10.0 microM); 100 ± 2% in data set [3] (normoxia, EC20 concentration 30.0 microM); 83 ± 2 % in data set [3] (normoxia, EC50 concentration 90.0 microM); 109 ± 5% in data set [3] (simulated ischemia, EC5 concentration 3.0 microM); 117 ± 5 % in data set [3] (simulated ischemia, EC10 concentration 10.0 microM). For the same molecule, the “Cytoprotective effect, % cell survival” value in data set [3] (simulated ischemia, EC20 concentration 30.0 microM) is given as 114 ± 4 %; in data set [3] (simulated ischemia, EC50 concentration 90.0 microM) it was 88 ± 4%.

`O=C(O)c1c[nH]c(CNCc2ccc(OCc3cccnc3)cc2)n1` [Compound 31, 2-[({[4-(Pyridin-3-ylmethoxy)phenyl]methyl}amino)methyl]-1H-imidazole-4-carboxylic acid]: the pIC50 at MMP1 was 3.63; on MMP2, under 3.30; against MMP9, under 3.30; on MMP13 it was 5.00. Besides, the CC50 at 48 h in data set [1] worked out at 200 µM; in data set [2], 70 µM. Moreover, the “Cytoprotective effect, % cell survival” value is given as 97 ± 4% in data set [3] (normoxia, EC5 concentration 0.3 microM); 102 ± 5% in data set [3] (normoxia, EC10 concentration 0.6 microM); 104 ± 3% in data set [3] (normoxia, EC20 concentration 1.2 microM); 105 ± 4% in data set [3] (normoxia, EC50 concentration 2.5 microM); 109 ± 5% in data set [3] (simulated ischemia, EC5 concentration 0.3 microM); 103 ± 4% in data set [3] (simulated ischemia, EC10 concentration 0.6 microM). Also, the “Cytoprotective effect, % cell survival” value in data set [3] (simulated ischemia, EC20 concentration 1.2 microM) is given as 111 ± 4%; in data set [3] (simulated ischemia, EC50 concentration 2.5 microM), 147 ± 2 %.
